Laboratory results taken from article PMC3760004 (Cancer research, 2013).
“Also recorded” adds a separate entry of the source.

Experiments:
T308 of Akt = test: Western blot of T308 of Akt in HCT-116 cells; type: cell-based; conditions: Homo sapiens, HCT-116, read-out: EC50, T308 of Akt
ATR [1] = target: T1, ATR (Homo sapiens, UniProt Q13535); test: ATR cellular activity, S317 of Chk1 after UV radiation, HCT-116 cells; type: cell-based
ATM [2] = target: T2, ATM (Homo sapiens, UniProt Q13315); type: cell-based
H2122 = test: Tumor cell growth assay; type: cell-based; conditions: Homo sapiens, NCI-H2122, 72 h
H358 = test: Tumor cell growth assay; type: cell-based; conditions: Homo sapiens, NCI-H358, 72 h
H1792 = test: Tumor cell growth assay; type: cell-based; conditions: Homo sapiens, NCI-H1792, 72 h
A549 = test: Tumor cell growth assay; type: cell-based; conditions: Homo sapiens, A549, 72 h
H441 = test: Tumor cell growth assay; type: cell-based; conditions: Homo sapiens, NCI-H441, 72 h
H1355 = test: Tumor cell growth assay; type: cell-based; conditions: Homo sapiens, NCI-H1355, 72 h
H460 = test: Tumor cell growth assay; type: cell-based; conditions: Homo sapiens, NCI-H460, 72 h
HCT-116 = test: Tumor cell growth assay; type: cell-based; conditions: Homo sapiens, HCT-116, 72 h
H1299 = test: Tumor cell growth assay; type: cell-based; conditions: Homo sapiens, NCI-H1299, 72 h
H292 = test: Tumor cell growth assay; type: cell-based; conditions: Homo sapiens, NCI-H292, 72 h
BT-20 = test: Tumor cell growth assay; type: cell-based; conditions: Homo sapiens, BT-20, 72 h
HS578T = test: Tumor cell growth assay; type: cell-based; conditions: Homo sapiens, Hs-578T, 72 h
MCF10A = test: Tumor cell growth assay; type: cell-based; conditions: Homo sapiens, MCF-10A, 72 h
MCF7 = test: Tumor cell growth assay; type: cell-based; conditions: Homo sapiens, MCF7, 72 h
MDAMB231 = test: Tumor cell growth assay; type: cell-based; conditions: Homo sapiens, MDA-MB-231, 72 h
SKBR3 = test: Tumor cell growth assay; type: cell-based; conditions: Homo sapiens, SK-BR-3, 72 h
Hela = test: Tumor cell growth assay; type: cell-based; conditions: Homo sapiens, 72 h
Calu1 = test: 72-hour proliferation assay; type: cell-based, human
Human mTORC1 complex = Human mTORC1 complex (Homo sapiens, UniProt P42345); test: ATP competition assay; conditions: biochemical kinase assays with increasing ATP concentrations
mTORC2 [3] = target: T3, mTORC2 (Homo sapiens, UniProt P42345); test: Cellular wash-out assay, AktS473 phosphorylation, HCT116 cells; type: cell-based; conditions: 100 nM for 1 hour, then wash-out
[4] = system: human fibroblast AG01522 cell line; test: Ionizing irradiation assay, clonogenic cell survival; type: cell-based; conditions: AG01522, added 30min before irradiation
[5] = system: HCT116 cells, AktT308 phosphorylation; test: Longer-term cellular signaling analysis; type: cell-based; conditions: 100 nM
[6] = system: HeLa cells, AktT308 phosphorylation; test: Longer-term cellular signaling analysis; type: cell-based; conditions: 100 nM
[7] = system: cancer cell lines (HCT116, Hela, Calu 1, H226, H358); test: Apoptosis assay, PARP cleavage by western blot; type: cell-based; conditions: 16 hours
Hela cells = test: Autophagy assay, acridine orange staining; type: cell-based; conditions: 72 h
[8] = system: HCT-116, Hela, Calu-1, H358 and H226; test: Autophagy assay, LC3B staining and western blot; type: cell-based; conditions: 5 cell lines, 3 days
Hela S3 cells = test: Cell cycle analysis by FACS; type: cell-based; conditions: Hela S3, 48 hrs
KRAS-driven lung tumors = test: Tumor volume by MRI in KRAS G12D driven lung cancer model; type: in vivo; conditions: KRAS G12D mice, 4 weeks, Torin2 40 mg/kg q.d., AZD6244 25 mg/kg q.d.
mTOR = test: Pharmacodynamics by immunohistochemistry in KRAS G12D lung tumors; type: in vivo, Mice
pERK = test: as above; type: in vivo, Mice; conditions: for pERK1/2 levels: after 4-week treatment
ATR kinase = test: as above; type: in vivo, Mice; conditions: after 4-week treatment
mTORC1 [9] = target: T4, mTORC1 (Homo sapiens, UniProt P42345); conditions: combined biochemical and cellular profiling summary
mTORC2 [10] = target: T3, mTORC2; conditions: combined biochemical and cellular profiling summary
DNA-PK = DNA-PK (Homo sapiens, UniProt P78527); conditions: combined biochemical and cellular profiling summary
mTORC1 [11] = target: T4, mTORC1; conditions: 0.5 µM inhibitor 1 hour, then 500 µM ATP
mTORC1 [12] = target: T4, mTORC1; test: Cellular wash-out assay, S6KT389 phosphorylation, HCT116 cells; type: cell-based; conditions: 100 nM for 1 hour, then wash-out
ATM [13] = target: T2, ATM; test: Kinativ chemical proteomics profiling in cellular lysates; type: binding
ATR [14] = target: T1, ATR; test: as above; type: binding
PIP4K2C = PIP4K2C (Homo sapiens, UniProt Q8TBX8); test: as above; type: binding
PIP5K3 = PIP5K3 (Homo sapiens, UniProt Q9Y2I7); test: as above; type: binding
SMG1 = SMG1 (Homo sapiens, UniProt Q96Q15); test: as above; type: binding
mTORC1 [15] = target: T4, mTORC1; conditions: cited from earlier work
[16] = combined biochemical and cellular profiling summary
[17] = 2-day, 40 mg/kg single daily dosing

T2 sequence (Q13315 whole entry, species assumed): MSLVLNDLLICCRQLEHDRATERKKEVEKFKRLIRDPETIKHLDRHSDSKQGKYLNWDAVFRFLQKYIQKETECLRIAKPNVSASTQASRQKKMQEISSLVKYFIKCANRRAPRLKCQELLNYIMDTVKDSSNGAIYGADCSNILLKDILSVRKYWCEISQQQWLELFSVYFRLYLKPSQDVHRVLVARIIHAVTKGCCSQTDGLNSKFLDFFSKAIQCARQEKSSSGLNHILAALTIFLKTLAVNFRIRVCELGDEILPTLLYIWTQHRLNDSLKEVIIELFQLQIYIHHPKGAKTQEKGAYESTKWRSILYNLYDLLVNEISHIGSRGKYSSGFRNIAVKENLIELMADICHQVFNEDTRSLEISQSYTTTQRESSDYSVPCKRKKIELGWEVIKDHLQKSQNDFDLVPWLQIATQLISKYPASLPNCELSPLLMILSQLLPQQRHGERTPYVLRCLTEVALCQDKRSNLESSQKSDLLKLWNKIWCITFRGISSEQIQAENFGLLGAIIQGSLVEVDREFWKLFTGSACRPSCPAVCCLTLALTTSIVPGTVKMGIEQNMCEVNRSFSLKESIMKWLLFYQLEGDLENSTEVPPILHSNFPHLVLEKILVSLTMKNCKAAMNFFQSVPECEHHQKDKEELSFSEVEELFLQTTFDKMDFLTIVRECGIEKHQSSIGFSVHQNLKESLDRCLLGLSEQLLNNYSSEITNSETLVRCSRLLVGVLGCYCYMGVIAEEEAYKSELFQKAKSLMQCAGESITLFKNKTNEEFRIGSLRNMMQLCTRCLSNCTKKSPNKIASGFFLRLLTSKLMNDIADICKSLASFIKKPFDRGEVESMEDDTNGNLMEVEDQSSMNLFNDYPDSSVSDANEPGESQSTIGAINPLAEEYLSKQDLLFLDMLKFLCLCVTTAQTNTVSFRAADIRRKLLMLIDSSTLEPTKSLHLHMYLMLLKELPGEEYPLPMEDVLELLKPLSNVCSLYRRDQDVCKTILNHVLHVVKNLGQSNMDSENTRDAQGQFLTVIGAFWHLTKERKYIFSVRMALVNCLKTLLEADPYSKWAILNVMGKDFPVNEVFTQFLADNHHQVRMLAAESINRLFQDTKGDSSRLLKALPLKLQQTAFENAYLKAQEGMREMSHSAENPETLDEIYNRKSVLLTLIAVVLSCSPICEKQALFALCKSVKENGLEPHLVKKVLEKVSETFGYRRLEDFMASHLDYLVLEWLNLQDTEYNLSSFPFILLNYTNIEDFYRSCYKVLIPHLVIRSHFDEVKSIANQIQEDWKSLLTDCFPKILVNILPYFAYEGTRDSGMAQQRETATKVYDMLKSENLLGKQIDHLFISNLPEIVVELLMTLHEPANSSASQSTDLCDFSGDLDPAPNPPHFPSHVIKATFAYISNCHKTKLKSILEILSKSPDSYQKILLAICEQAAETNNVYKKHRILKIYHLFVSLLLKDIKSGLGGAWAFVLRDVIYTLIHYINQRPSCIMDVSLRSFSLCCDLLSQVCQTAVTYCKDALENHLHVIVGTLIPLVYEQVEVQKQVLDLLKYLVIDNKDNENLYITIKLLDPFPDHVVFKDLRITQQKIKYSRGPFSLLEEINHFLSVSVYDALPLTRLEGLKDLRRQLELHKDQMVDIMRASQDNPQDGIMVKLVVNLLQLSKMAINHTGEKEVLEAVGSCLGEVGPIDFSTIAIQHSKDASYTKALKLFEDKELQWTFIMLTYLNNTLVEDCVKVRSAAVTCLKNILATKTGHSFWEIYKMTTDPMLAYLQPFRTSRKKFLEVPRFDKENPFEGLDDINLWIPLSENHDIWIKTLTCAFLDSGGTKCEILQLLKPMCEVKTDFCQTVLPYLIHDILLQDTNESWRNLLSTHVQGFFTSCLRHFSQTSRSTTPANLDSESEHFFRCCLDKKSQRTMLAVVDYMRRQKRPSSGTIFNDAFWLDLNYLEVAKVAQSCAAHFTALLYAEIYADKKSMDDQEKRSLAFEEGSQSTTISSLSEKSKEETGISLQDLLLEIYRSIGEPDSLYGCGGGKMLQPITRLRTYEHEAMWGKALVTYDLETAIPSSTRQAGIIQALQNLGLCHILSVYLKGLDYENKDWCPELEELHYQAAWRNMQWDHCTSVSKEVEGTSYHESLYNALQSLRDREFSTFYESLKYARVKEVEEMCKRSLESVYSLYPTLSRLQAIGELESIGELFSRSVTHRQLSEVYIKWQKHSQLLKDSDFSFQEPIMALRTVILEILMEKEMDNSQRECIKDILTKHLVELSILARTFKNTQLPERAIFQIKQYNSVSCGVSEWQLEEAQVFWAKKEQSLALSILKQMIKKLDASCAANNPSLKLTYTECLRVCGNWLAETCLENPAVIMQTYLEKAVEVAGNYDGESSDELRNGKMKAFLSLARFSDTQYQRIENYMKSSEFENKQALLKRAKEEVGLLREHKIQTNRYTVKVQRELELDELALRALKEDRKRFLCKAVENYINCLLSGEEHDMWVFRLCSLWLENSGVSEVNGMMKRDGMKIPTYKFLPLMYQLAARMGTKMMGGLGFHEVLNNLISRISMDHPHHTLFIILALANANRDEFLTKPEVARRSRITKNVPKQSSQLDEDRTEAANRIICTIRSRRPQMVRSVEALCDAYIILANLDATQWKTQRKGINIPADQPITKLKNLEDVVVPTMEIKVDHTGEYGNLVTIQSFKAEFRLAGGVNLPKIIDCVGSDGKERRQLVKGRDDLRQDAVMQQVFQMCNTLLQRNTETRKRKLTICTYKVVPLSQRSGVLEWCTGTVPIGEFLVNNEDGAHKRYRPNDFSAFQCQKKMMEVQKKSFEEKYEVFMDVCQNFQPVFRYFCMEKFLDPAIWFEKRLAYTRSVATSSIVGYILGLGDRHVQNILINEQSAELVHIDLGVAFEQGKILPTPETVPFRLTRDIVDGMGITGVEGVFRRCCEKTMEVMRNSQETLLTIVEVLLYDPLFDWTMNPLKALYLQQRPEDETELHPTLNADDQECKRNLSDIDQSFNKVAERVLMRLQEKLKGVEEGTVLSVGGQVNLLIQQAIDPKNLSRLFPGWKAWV
Sequence of PIP5K3 (Q9Y2I7 whole entry, species assumed): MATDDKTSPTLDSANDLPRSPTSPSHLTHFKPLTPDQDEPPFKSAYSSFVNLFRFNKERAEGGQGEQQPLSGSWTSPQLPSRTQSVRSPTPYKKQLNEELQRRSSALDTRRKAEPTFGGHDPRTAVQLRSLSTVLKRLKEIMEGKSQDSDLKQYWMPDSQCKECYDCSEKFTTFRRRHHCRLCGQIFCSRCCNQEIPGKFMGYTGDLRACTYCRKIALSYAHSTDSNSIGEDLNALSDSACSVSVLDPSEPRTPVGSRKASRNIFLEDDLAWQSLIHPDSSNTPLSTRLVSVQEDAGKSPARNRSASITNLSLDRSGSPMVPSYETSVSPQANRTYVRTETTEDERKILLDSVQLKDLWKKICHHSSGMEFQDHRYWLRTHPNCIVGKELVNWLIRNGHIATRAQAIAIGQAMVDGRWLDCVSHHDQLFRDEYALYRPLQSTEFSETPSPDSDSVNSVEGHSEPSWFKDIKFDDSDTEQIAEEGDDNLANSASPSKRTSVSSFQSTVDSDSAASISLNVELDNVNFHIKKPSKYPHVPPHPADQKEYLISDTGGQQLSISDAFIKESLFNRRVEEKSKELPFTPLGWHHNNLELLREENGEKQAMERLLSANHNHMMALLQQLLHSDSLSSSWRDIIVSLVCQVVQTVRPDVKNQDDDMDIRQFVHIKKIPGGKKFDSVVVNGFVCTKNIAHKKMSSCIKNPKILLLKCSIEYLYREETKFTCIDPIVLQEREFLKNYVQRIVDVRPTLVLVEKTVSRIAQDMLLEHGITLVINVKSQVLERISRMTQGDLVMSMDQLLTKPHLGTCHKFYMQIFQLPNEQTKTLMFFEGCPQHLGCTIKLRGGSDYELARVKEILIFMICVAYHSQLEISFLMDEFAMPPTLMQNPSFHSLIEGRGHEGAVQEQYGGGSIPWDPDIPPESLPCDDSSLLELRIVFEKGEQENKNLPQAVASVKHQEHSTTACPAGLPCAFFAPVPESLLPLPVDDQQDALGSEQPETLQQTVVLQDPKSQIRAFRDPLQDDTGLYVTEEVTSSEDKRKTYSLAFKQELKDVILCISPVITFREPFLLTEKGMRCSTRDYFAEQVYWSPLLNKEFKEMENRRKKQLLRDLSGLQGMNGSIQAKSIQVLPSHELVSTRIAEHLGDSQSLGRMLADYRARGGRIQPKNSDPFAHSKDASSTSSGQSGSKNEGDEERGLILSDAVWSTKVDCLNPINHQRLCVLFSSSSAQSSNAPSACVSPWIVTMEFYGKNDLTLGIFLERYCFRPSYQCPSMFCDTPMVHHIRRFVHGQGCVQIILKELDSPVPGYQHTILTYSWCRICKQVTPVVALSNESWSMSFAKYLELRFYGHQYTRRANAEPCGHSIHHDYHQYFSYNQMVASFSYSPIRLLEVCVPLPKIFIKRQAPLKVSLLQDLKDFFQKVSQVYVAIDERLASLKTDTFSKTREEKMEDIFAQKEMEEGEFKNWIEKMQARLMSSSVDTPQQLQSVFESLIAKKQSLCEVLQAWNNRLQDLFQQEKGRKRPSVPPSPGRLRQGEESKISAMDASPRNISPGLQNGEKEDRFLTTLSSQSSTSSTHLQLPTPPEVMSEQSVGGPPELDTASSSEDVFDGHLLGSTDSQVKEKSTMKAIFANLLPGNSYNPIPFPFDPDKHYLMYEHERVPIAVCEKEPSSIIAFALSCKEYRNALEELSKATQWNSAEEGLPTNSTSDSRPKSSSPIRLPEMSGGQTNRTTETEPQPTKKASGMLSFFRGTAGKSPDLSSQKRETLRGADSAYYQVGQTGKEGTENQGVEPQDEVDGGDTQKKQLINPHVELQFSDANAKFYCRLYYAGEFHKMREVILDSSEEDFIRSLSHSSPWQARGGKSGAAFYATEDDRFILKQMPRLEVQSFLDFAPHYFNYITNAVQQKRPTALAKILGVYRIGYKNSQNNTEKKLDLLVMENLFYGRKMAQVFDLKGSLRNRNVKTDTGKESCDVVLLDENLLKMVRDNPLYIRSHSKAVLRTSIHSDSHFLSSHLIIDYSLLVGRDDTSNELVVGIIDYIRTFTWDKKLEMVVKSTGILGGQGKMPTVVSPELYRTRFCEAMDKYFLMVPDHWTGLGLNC

Question: With Nc1ccc(-c2ccc3ncc4ccc(=O)n(-c5cccc(C(F)(F)F)c5)c4c3c2)cn1 [Torin2, 9-(6-aminopyridin-3-yl)-1-(3-(trifluoromethyl)phenyl)benzo[h][1,6]naphthyridin-2(1H)-one] as the compound, how does the EC50 (T308 of Akt) read?
Answer: < 10 nM

Question: And the “concentration at which ATR is inhibited” value (ATR [1]; [16])?
Answer: 20 to 100 nM

Question: And the “concentration at which ATM is inhibited” value (ATM [2]; [16])?
Answer: 20 to 100 nM

Question: What about the GI50 (H2122) of the same compound?
Answer: 13.2 nM

Question: And the GI50 (H358)?
Answer: 105 nM

Question: And the GI50 (H1792)?
Answer: 19.8 nM

Question: What about the GI50 (A549) of the same compound?
Answer: 31.1 nM

Question: And the GI50 (H441)?
Answer: 20.5 nM

Question: What about the GI50 (H1355) of the same compound?
Answer: 25.8 nM

Question: And the GI50 (H460)?
Answer: 45.7 nM

Question: And the GI50 (HCT-116)?
Answer: 60.7 nM

Question: And the GI50 (H1299)?
Answer: 23.6 nM

Question: And the GI50 (H292)?
Answer: 10.1 nM

Question: What about the GI50 (BT-20) of the same compound?
Answer: 219 nM

Question: And the GI50 (HS578T)?
Answer: 62.4 nM

Question: What about the GI50 (MCF10A) of the same compound?
Answer: 32.1 nM

Question: What about the GI50 (MCF7) of the same compound?
Answer: 41.1 nM

Question: What about the GI50 (MDAMB231) of the same compound?
Answer: 108 nM

Question: And the GI50 (SKBR3)?
Answer: 123 nM

Question: What about the GI50 (Hela) of the same compound?
Answer: 29.3 nM

Question: And the “sensitivity of proliferation, Calu1” value (Calu1)?
Answer: relatively more resistant

Question: What about the “mode of mTOR inhibition” value (Human mTORC1 complex) of the same compound?
Answer: ATP-competitive fashion

Question: And the “time for AktS473 phosphorylation (mTORC2 function) to recover after wash-out” value (mTORC2 [3])?
Answer: approximately 4 hours

Question: What about the “sensitization of IR treatment, clonogenic survival” value [4] of the same compound?
Answer: dose dependent sensitization of the IR treatment

Question: And the “recovery of AktT308 phosphorylation by 72 hours” value [5]?
Answer: partially

Question: What about the “recovery of AktT308 phosphorylation by 72 hours” value [6] of the same compound?
Answer: completely recovered

Question: What about the “apoptosis (PARP cleavage) in H358” value [7] of the same compound?
Answer: induced strong apoptosis

Question: And the “punctate acridine orange staining (autophagy)” value (Hela cells)?
Answer: dose dependent increase in punctate acridine staining

Question: And the LC3-1/II autophagosome markers [8]?
Answer: dose dependent increase of LC3-1/II autophagosome markers

Question: What about the “cell cycle distribution by flow cytometry” value (Hela S3 cells) of the same compound?
Answer: dose-dependent decrease in G1 cells and an increase in S-phase, sub-G1 phase cells and cell death

Question: And the “tumor volume / tumor growth by MRI” value (KRAS-driven lung tumors)?
Answer: did not yield significant efficacy; also recorded: neither Torin2 (40 mg/kg, q.d.) nor AZD6244 (25 mg/kg, q.d.) alone resulted in a significant inhibition of tumor volume

Question: What about the “pAkt(T308) by immunohistochemistry” value (mTOR; [17]) of the same compound?
Answer: partly suppressed

Question: What about the “pS6K(T389) and p4EBP1(T37/46) by immunohistochemistry” value (mTOR; [17]) of the same compound?
Answer: strongly suppressed

Question: And the “pS6K(T389) and p4EBP1(T37/46) levels” value (mTOR; after 4-week treatment)?
Answer: showed some recovery

Question: What about the pERK1/2 levels (pERK) of the same compound?
Answer: significantly increased

Question: What about the “pCHK1(S345)” value (ATR kinase) of the same compound?
Answer: slightly decreased

Question: And the “concentration at which mTORC1 is inhibited” value (mTORC1 [9])?
Answer: less than 10 nM

Question: And the “concentration at which mTORC2 is inhibited” value (mTORC2 [10])?
Answer: less than 10 nM

Question: What about the “concentration at which PI3K is inhibited” value (PI3K; [16]) of the same compound?
Answer: above 200 nM

Question: What about the EC50 (PI3K; read-out: apparent EC50 against T308 with S473D mutant of Akt, PC3 AktS473D cell line) of the same compound?
Answer: 200 nM

Question: What about the “concentration at which DNA-PK is inhibited” value (DNA-PK) of the same compound?
Answer: 20 to 100 nM

Question: What about the “recovery of mTORC1 kinase activity after removal of drug” value (mTORC1 [11]; about 75 minutes window) of the same compound?
Answer: sustained inhibition of mTORC1

Question: Which results are given for Cn1cnc2c(F)c(Nc3ccc(Br)cc3Cl)c(C(=O)NOCCO)cc21 [AZD6244]?
Answer: tumor volume / tumor growth by MRI (KRAS-driven lung tumors): neither Torin2 (40 mg/kg, q.d.) nor AZD6244 (25 mg/kg, q.d.) alone resulted in a significant inhibition of tumor volume; pERK by immunohistochemistry (pERK; 2-day, AZD6244 25 mg/kg): profound inhibition; pERK1/2 levels (pERK): slightly recovered

Question: Which results are given for COc1ccc(-c2ccc3c(N4CCOC[C@@H]4C)nc(N4CCOC[C@@H]4C)nc3n2)cc1CO [AZD8055, reference compound]?
Answer: sensitivity of proliferation, Calu1 (Calu1): relatively more resistant; time for S6KT389 phosphorylation (mTORC1 function) to recover after wash-out (mTORC1 [12]): ≤ 1 h; time for AktS473 phosphorylation (mTORC2 function) to recover after wash-out (mTORC2 [3]): ≤ 1 h

Question: With CCC(=O)N1CCN(c2ccc(-n3c(=O)ccc4cnc5ccc(-c6cnc7ccccc7c6)cc5c43)cc2C(F)(F)F)CC1 [Torin1, 1-(4-(4-propionylpiperazin-1-yl)-3-(trifluoromethyl)phenyl)-9-(quinolin-3-yl)benz o[h][1,6]naphthyridin-2(1H)-one] as the compound, how does the IC50 (ATM [13]) read?
Answer: 640 nM

Question: And the IC50 (ATR [14])?
Answer: < 10 nM

Question: And the IC50 (PIP4K2C)?
Answer: > 10000 nM

Question: What about the IC50 (PIP5K3) of the same compound?
Answer: > 10000 nM

Question: What about the IC50 (SMG1) of the same compound?
Answer: 4400 nM

Question: And the EC50 (ATR [1])?
Answer: > 1000 nM

Question: What about the EC50 (ATM [2]) of the same compound?
Answer: > 1000 nM

Question: What about the “duration of sustained inhibition of mTORC1 kinase activity after removal of drug” value (mTORC1 [11]; 4EBP1 phosphorylation) of the same compound?
Answer: approximately 75 minutes

Question: What about the “duration of suppression of S6K T389 phosphorylation after removal of the drug” value (mTORC1 [15]) of the same compound?
Answer: up to 16 h
